# Test results reported in publication PMC9516332 (Frontiers in Oncology, 2022).
# Like-named read-outs stand apart in the source and are kept apart here.
# System: 134 cancer cell lines
# Experiment: Cell viability assay (ATPlite, 72 hours), IC50 on cancer cell line panel
smiles,measurement,setting,value
C[C@@H](Oc1cc(-c2cnn(C3CCNCC3)c2)cnc1N)c1c(Cl)ccc(F)c1Cl [crizotinib],IC50,"Homo sapiens, LS-411N, read-out: IC50 in cell proliferation assay",2450 nM
same,IC50,"Homo sapiens, LoVo, read-out: IC50 in cell proliferation assay",1400 nM
same,IC50,"Homo sapiens, MCF7, read-out: IC50 in cell proliferation assay",3760 nM
same,IC50,"Homo sapiens, MDA-MB-231, read-out: IC50 in cell proliferation assay",2400 nM
same,IC50,"Homo sapiens, MDA-MB-453, read-out: IC50 in cell proliferation assay",7670 nM
same,IC50,"Homo sapiens, MDA-MB-468, read-out: IC50 in cell proliferation assay",2370 nM
same,IC50,"Homo sapiens, MG-63, read-out: IC50 in cell proliferation assay",2620 nM
same,IC50,"Homo sapiens, MIA PaCa-2, read-out: IC50 in cell proliferation assay",1610 nM
same,IC50,"Homo sapiens, MKN-45, read-out: IC50 in cell proliferation assay",62 nM
same,IC50,"Homo sapiens, MOLM-13, read-out: IC50 in cell proliferation assay",444 nM
same,IC50,"Homo sapiens, MOLT-4, read-out: IC50 in cell proliferation assay",641 nM
same,IC50,"Homo sapiens, MV4-11, read-out: IC50 in cell proliferation assay",829 nM
same,IC50,"Homo sapiens, MeWo, read-out: IC50 in cell proliferation assay",3600 nM
same,IC50,"Homo sapiens, NCCIT, read-out: IC50 in cell proliferation assay",1470 nM
same,IC50,"Homo sapiens, NCI-H82, read-out: IC50 in cell proliferation assay",1590 nM
same,IC50,"Homo sapiens, NCI-H460, read-out: IC50 in cell proliferation assay",2500 nM
same,IC50,"Homo sapiens, NCI-H661, read-out: IC50 in cell proliferation assay",6620 nM
same,IC50,"Homo sapiens, NCI-H716, read-out: IC50 in cell proliferation assay",1600 nM
same,IC50,"Homo sapiens, NCI-H1650, read-out: IC50 in cell proliferation assay",3700 nM
same,IC50,"Homo sapiens, NCI-H1975, read-out: IC50 in cell proliferation assay",3380 nM
same,IC50,"Homo sapiens, NCI-H2228, read-out: IC50 in cell proliferation assay",82 nM
same,IC50,"Homo sapiens, OVCAR-3, read-out: IC50 in cell proliferation assay",7280 nM
same,IC50,"Homo sapiens, PFSK-1, read-out: IC50 in cell proliferation assay",2160 nM
same,IC50,"Homo sapiens, RL95-2, read-out: IC50 in cell proliferation assay",1270 nM
same,IC50,"Homo sapiens, RPMI-7951, read-out: IC50 in cell proliferation assay",2090 nM
same,IC50,"Homo sapiens, RS4-11, read-out: IC50 in cell proliferation assay",783 nM
same,IC50,"Homo sapiens, Rec1, read-out: IC50 in cell proliferation assay",3500 nM
same,IC50,"Homo sapiens, SHP77, read-out: IC50 in cell proliferation assay",3380 nM
same,IC50,"Homo sapiens, SK-BR-3, read-out: IC50 in cell proliferation assay",8760 nM
same,IC50,"Homo sapiens, SK-N-AS, read-out: IC50 in cell proliferation assay",1840 nM
same,IC50,"Homo sapiens, SK-N-FI, read-out: IC50 in cell proliferation assay",2170 nM
same,IC50,"Homo sapiens, SK-N-MC, read-out: IC50 in cell proliferation assay",1050 nM
same,IC50,"Homo sapiens, SK-N-SH, read-out: IC50 in cell proliferation assay",843 nM
same,IC50,"Homo sapiens, SNU-5, read-out: IC50 in cell proliferation assay",11 nM
same,IC50,"Homo sapiens, SNU-16, read-out: IC50 in cell proliferation assay",1920 nM
same,IC50,"Homo sapiens, SNU-C2B, read-out: IC50 in cell proliferation assay",4800 nM
same,IC50,"Homo sapiens, SU-DHL-1, read-out: IC50 in cell proliferation assay",182 nM
same,IC50,"Homo sapiens, SU-DHL-6, read-out: IC50 in cell proliferation assay",2190 nM
same,IC50,"Homo sapiens, SUP-T1, read-out: IC50 in cell proliferation assay",1740 nM
same,IC50,"Homo sapiens, SW48, read-out: IC50 in cell proliferation assay",1020 nM
same,IC50,"Homo sapiens, SW480, read-out: IC50 in cell proliferation assay",2660 nM
same,IC50,"Homo sapiens, SW626, read-out: IC50 in cell proliferation assay",2950 nM
same,IC50,"Homo sapiens, SW780, read-out: IC50 in cell proliferation assay",3860 nM
same,IC50,"Homo sapiens, SW837, read-out: IC50 in cell proliferation assay",4010 nM
same,IC50,"Homo sapiens, SW872, read-out: IC50 in cell proliferation assay",2230 nM
same,IC50,"Homo sapiens, SW948, read-out: IC50 in cell proliferation assay",2660 nM
same,IC50,"Homo sapiens, SW982, read-out: IC50 in cell proliferation assay",1450 nM
same,IC50,"Homo sapiens, SW-620, read-out: IC50 in cell proliferation assay",1370 nM
same,IC50,"Homo sapiens, T98G, read-out: IC50 in cell proliferation assay",3740 nM
same,IC50,"Homo sapiens, TCC-SUP, read-out: IC50 in cell proliferation assay",3540 nM
same,IC50,"Homo sapiens, THP-1, read-out: IC50 in cell proliferation assay",4960 nM
same,IC50,"Homo sapiens, U2OS, read-out: IC50 in cell proliferation assay",3450 nM
same,IC50,"Homo sapiens, U-87 MG, read-out: IC50 in cell proliferation assay",222 nM
same,IC50,"Homo sapiens, U-118-MG, read-out: IC50 in cell proliferation assay",3970 nM
same,IC50,"Homo sapiens, UMUC3, read-out: IC50 in cell proliferation assay",2770 nM
same,IC50,"Hs766T, read-out: IC50 in cell proliferation assay",3600 nM
same,IC50,"L-82, read-out: IC50 in cell proliferation assay",47 nM
same,IC50,"Rh30, read-out: IC50 in cell proliferation assay",1570 nM
